Assay results from US8415106B2, “Cell-based screen for agents useful for reducing neuronal demyelination or promoting neuronal remyelination” (Myelin Repair Foundation, Inc., priority 2005, dated 2013).

Assays:
[1] = test system: myelin basic protein (MBP); test: Hippocampal organotypic cultures (HOC), in vitro model of myelination, MBP Western blot; format: cell-based; conditions: 7 days
Description: HOCs, were prepared and maintained as described previously (Kunkler and Kraig (1997) J Cereb Blood Flow Metab. 17:26-43), and were maintained in vitro for 7 days before use. SAL at various concentrations was combined with 100 U/ml IFN-γ and added to the HOC cultures for 7 days. […] After 7 days of 100 U/ml IFN-γ exposure, the levels of MBP decreased approximately 80% in the HOCs (FIG. 29).

PP1-GADD34 phosphatase = conditions: Boyce, et al. (2005) Science 307:935-939; cited from earlier work

For `O=C(/C=C/c1ccccc1)NC(NC(=S)Nc1cccc2cccnc12)C(Cl)(Cl)Cl` (stereo not drawn) [SAL, salubrinal], the “reduction of MBP expression elicited by IFN-γ exposure” value ([1]; SAL at various concentrations combined with 100 U/ml IFN-γ) is given as “markedly attenuated”, the MBP expression ([1]; SAL treatment alone) is given as “did not affect MBP expression” and the PP1-GADD34 phosphatase activity (PP1-GADD34 phosphatase) is given as “specifically inhibits the PP1-GADD34 phosphatase activity”.
